Target: T1, fascin1 (Homo sapiens, UniProt Q16658)
T1 construct: gene FSCN1; commercial purified fascin1 (Hypermol)
Assay: F-actin bundling, low-speed cosedimentation
Type: biochemical
Conditions: 1 µM fascin1; 10 µM F-actin

CN(C)CCCN1c2ccccc2CCc2ccccc21 [imipramine] was tested, and the “F-actin bundling, low-speed cosedimentation” value was “upon imipramine addition, the F-actin pellet fraction significantly diminished in favor of the supernatant”.

— paper PMC7062870 (Experimental & Molecular Medicine, 2020)
